Results: patent US7060678B2, “Peptides comprising furanoid sugar amino acids for the treatment of cancer” (Dabur Research Foundation, priority 2003, dated 2006)
Where two headings read alike, the source gives them in different places. Starred links: 1 amine or outer side, 2 acyl side, 3 side chain; linkers in the order of their positions; H or OH if unused. Non-standard residues stand in square brackets, D forms with d. Residues, ends and D or L forms follow the SMILES beside them. 2Furoyl(5-aminomethyl) = O=C(c1ccc(CN[*:1])o1)[*:2]; X2 = O=C([C@@H]1CC[C@H](CN[*:1])O1)[*:2]

Columns and labels:
[1] = test system: PA1 (human ovary); assay: MTT cytotoxicity assay, PA1 cells; type: cell-based; conditions: human, 48 hours
Excerpt: (§1) The following cell lines were used.

[2] = test system: HeP-2 (larynx); assay: MTT cytotoxicity assay, HeP-2 cells; type: cell-based, human; conditions: human, 48 hours
Excerpt: as §1

[3] = test system: KB (oral); assay: MTT cytotoxicity assay, KB cells; type: cell-based, human; conditions: human, 48 hours
Excerpt: as §1

[4] = test system: PTC (colon); assay: MTT cytotoxicity assay, PTC cells; type: cell-based, human; conditions: human, 48 hours
Excerpt: as §1

[5] = test system: ECV-304 (endothelial); conditions: ECV-304 cells, 48 hours, NA = Not Active
Excerpt: Although sterile phosphate buffered saline was used to prepare each stock solution for the testing described in the following example, other diluents may be used such as buffered saline, isotonic NaCl, Ringer's solution, water, distilled water, polyethylene glycol (neat or in water), Tween in water, dimethylsulfoxide up to 50% in water, propylene glycol (neat or in water), phosphate buffered saline, balanced salt solution, glycerol, and other conventional fluids that are suitable for parentral administration. To obtain a pH in the range of approximately 3.5 to 7.0, for each stock solution, the pH can be adjusted by using 1N HCl for lowering the pH or 1N NaOH for raising the pH, although other buffers such as citrate buffer, phosphate buffer and the like or other conventional agents for adjusting the pH can be used.
The MTT assay is based on the principle of uptake of MTT [3-[4,5-dimethylthiazol-2-yl]-2,5-diphenyl tetrazolium bromide], a tetrazolium salt, by the metabolically active cells where it is metabolized by active mitochondria into a blue colored formazan product which can be read spectrophotometrically. […] The formazan crystals formed inside the cells were dissolved with a detergent comprising of 10% Sodium dodecyl sulfate and 0.01 N HCl and optical density read on a multi-scan ELISA reader. The optical density was directly proportional to the number of proliferating and metabolically active cells. The following cell lines were used. PA1(human ovary), PTC (colon), HeP-2 (larynx), MiaPaCa.2 (human pancreas), KB (oral), ECV-304 (endothelial) and HeP-G2 (liver).

[6] = test system: MiaPaCa.2 (human pancreas); assay: MTT cytotoxicity assay, MiaPaCa.2 cells; type: cell-based; conditions: human, 48 hours
Excerpt: as §1

[7] = test system: HeP-G2 (liver); assay: MTT cytotoxicity assay, HeP-G2 cells; type: cell-based, human; conditions: human, 48 hours
Excerpt: as §1

CSCC[C@H](NC(=O)[C@@H](N)CC(C)C)C(=O)N[C@@H](Cc1ccc(O)cc1)C(=O)NC[C@H]1CC[C@@H](C(=O)N[C@@H](Cc2ccc(O)cc2)C(=O)N[C@@H](CC(C)C)C(=O)N[C@@H](CCCCN)C(=O)O)O1 [SEQ ID NO: 13, Leu-Met-Tyr-Saa4-Tyr-Leu-Lys] (H-LMY[X2]YLK-OH)
Percent Cytotoxicity ([1]; 1 nM): 44.0 ± 3.9% | Percent Cytotoxicity ([1]; 10 nM): 41.0 ± 4.2% | Percent Cytotoxicity ([1]; 100 nM): 38.0 ± 3.9% | Percent Cytotoxicity ([1]; 1 μM): 35.5 ± 2.4% | Percent Cytotoxicity ([2]; 1 nM): 23.0 ± 2.1% | Percent Cytotoxicity ([2]; 10 nM): 21.8 ± 1.8% | Percent Cytotoxicity ([2]; 100 nM): 17.9 ± 1.9% | Percent Cytotoxicity ([2]; 1 μM): 16.4 ± 0.6% | Percent Cytotoxicity ([3]; 1 nM): 30.0 ± 2.8% | Percent Cytotoxicity ([3]; 10 nM): 27.9 ± 2.1% | Percent Cytotoxicity ([3]; 100 nM): 26.9 ± 2.1% | Percent Cytotoxicity ([3]; 1 μM): 21.4 ± 2.1% | Percent Cytotoxicity ([4]; 1 nM): 28.5 ± 2.0% | Percent Cytotoxicity ([4]; 10 nM): 26.0 ± 2.9% | Percent Cytotoxicity ([4]; 100 nM): 22.8 ± 2.1% | Percent Cytotoxicity ([4]; 1 μM): 20.8 ± 1.8% | Percent Cytotoxicity ([5]; peptide 1 nM): 23.0 ± 1.6% | Percent Cytotoxicity ([5]; peptide 10 nM): 21.0 ± 2.6% | Percent Cytotoxicity ([5]; peptide 100 nM): 18.0 ± 1.6% | Percent Cytotoxicity ([5]; peptide 1 μM): 12.1 ± 1.3% | Percent Cytotoxicity ([6]; 1 nM): 17.5 ± 1.9% | Percent Cytotoxicity ([6]; 10 nM): 14.0 ± 0.6% | Percent Cytotoxicity ([6]; 100 nM): 8.0 ± 0.6%

CSCC[C@H](N)C(=O)NCc1ccc(C(=O)N[C@@H](Cc2ccc(O)cc2)C(=O)N[C@@H](CC(C)C)C(=O)O)o1 [SEQ ID NO: 14, Met-Saa1-Tyr-Leu]
Percent Cytotoxicity ([2]; 1 nM): 11.0 ± 1.9% | Percent Cytotoxicity ([2]; 10 nM): 10.6 ± 1.1% | Percent Cytotoxicity ([2]; 100 nM): 6.0 ± 0.8% | Percent Cytotoxicity ([3]; 1 nM): 14.5 ± 0.4% | Percent Cytotoxicity ([3]; 10 nM): 12.9 ± 0.5% | Percent Cytotoxicity ([4]; 1 nM): 28.9 ± 2.2% | Percent Cytotoxicity ([4]; 10 nM): 26.9 ± 2.9% | Percent Cytotoxicity ([4]; 100 nM): 21.8 ± 1.0% | Percent Cytotoxicity ([4]; 1 μM): 15.0 ± 0.5% | Percent Cytotoxicity ([5]; peptide 1 nM): 12.7 ± 0.4% | Percent Cytotoxicity ([5]; peptide 10 nM): 13.0 ± 0.6% | Percent Cytotoxicity ([5]; peptide 100 nM): 6.0 ± 0.0% | Percent Cytotoxicity ([6]; 1 nM): 17.0 ± 1.7% | Percent Cytotoxicity ([6]; 10 nM): 13.9 ± 1.1% | Percent Cytotoxicity ([6]; 100 nM): 7.0 ± 0.3%

CSCC[C@H](N)C(=O)NCC1CCC(C(=O)N[C@@H](Cc2ccc(O)cc2)C(=O)N[C@@H](CC(C)C)C(=O)O)O1 (stereo partly shown) [SEQ ID NO: 16, Met-Saa3-Tyr-Leu]
Percent Cytotoxicity ([1]; 1 nM): 24.0 ± 2.1% | Percent Cytotoxicity ([1]; 10 nM): 22.9 ± 2.1% | Percent Cytotoxicity ([1]; 100 nM): 19.0 ± 1.0% | Percent Cytotoxicity ([1]; 1 μM): 16.8 ± 1.8% | Percent Cytotoxicity ([2]; 1 nM): 16.5 ± 1.6% | Percent Cytotoxicity ([2]; 10 nM): 19.2 ± 1.6% | Percent Cytotoxicity ([2]; 100 nM): 12.6 ± 0.5% | Percent Cytotoxicity ([2]; 1 μM): 10.9 ± 1.1% | Percent Cytotoxicity ([7]; 1 nM): 11.0 ± 1.1% | Percent Cytotoxicity ([7]; 10 nM): 12.8 ± 0.7% | Percent Cytotoxicity ([7]; 100 nM): 11.4 ± 0.7% | Percent Cytotoxicity ([7]; 1 μM): 9.8 ± 0.7% | Percent Cytotoxicity ([3]; 1 nM): 9.3 ± 0.3% | Percent Cytotoxicity ([3]; 10 nM): 9.7 ± 0.4% | Percent Cytotoxicity ([3]; 100 nM): 3.2 ± 0.1% | Percent Cytotoxicity ([5]; peptide 1 nM): 9.3 ± 0.6% | Percent Cytotoxicity ([5]; peptide 10 nM): 7.9 ± 0.1%

CSCC[C@H](NC(=O)[C@@H](N)CC(C)C)C(=O)NCc1ccc(C(=O)N[C@@H](Cc2ccc(O)cc2)C(=O)N[C@@H](CC(C)C)C(=O)N[C@@H](CCCCN)C(=O)O)o1 [SEQ ID NO: 18, Leu-Met-Saa1-Tyr-Leu-Lys] (H-LM[2Furoyl(5-aminomethyl)]YLK-OH)
Percent Cytotoxicity ([1]; 1 nM): 18.3 ± 1.8% | Percent Cytotoxicity ([1]; 10 nM): 22.8 ± 2.9% | Percent Cytotoxicity ([1]; 100 nM): 21.8 ± 2.1% | Percent Cytotoxicity ([1]; 1 μM): 20.3 ± 2.6% | Percent Cytotoxicity ([2]; 1 nM): 47.0 ± 4.8% | Percent Cytotoxicity ([2]; 10 nM): 38.3 ± 2.0% | Percent Cytotoxicity ([2]; 100 nM): 35.8 ± 2.4% | Percent Cytotoxicity ([2]; 1 μM): 32.9 ± 2.6% | Percent Cytotoxicity ([3]; 1 nM): 15.9 ± 1.0% | Percent Cytotoxicity ([3]; 10 nM): 12.0 ± 0.3% | Percent Cytotoxicity ([3]; 100 nM): 14.0 ± 1.0% | Percent Cytotoxicity ([3]; 1 μM): 9.3 ± 0.4% | Percent Cytotoxicity ([4]; 1 nM): 19.0 ± 1.6% | Percent Cytotoxicity ([4]; 10 nM): 28.4 ± 1.0% | Percent Cytotoxicity ([4]; 100 nM): 23.9 ± 2.9% | Percent Cytotoxicity ([4]; 1 μM): 21.7 ± 1.5% | Percent Cytotoxicity ([5]; peptide 1 nM): 11.0 ± 0.6% | Percent Cytotoxicity ([6]; 1 nM): 24.8 ± 2.0% | Percent Cytotoxicity ([6]; 10 nM): 21.0 ± 2.6% | Percent Cytotoxicity ([6]; 100 nM): 18.5 ± 0.6% | Percent Cytotoxicity ([6]; 1 μM): 15.0 ± 0.6%
